Results from PubChem BioAssay (NCI).
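GI50 marks 50% less growth. TGI: concentration producing complete growth inhibition.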

Assays:
Assay in all cases: inhibition of tumour cell growth, NCI panel, 384-well format; in the data active means GI50 below about 0.43 µM; inactive means the rest
MDA-MB-435 melanoma = test system: MDA-MB-435 melanoma
HOP-92 NSCLC = test system: HOP-92 NSCLC
SN12C renal = test system: SN12C renal
UO-31 renal = test system: UO-31 renal
SK-MEL-5 melanoma = test system: SK-MEL-5 melanoma
COLO 205 colon = test system: COLO 205 colon
A498 renal = test system: A498 renal
SNB-19 CNS = test system: SNB-19 CNS
NCI-H322M lung = test system: NCI-H322M lung
PC-3 prostate = test system: PC-3 prostate
OVCAR-5 ovarian = test system: OVCAR-5 ovarian
SR leukemia = test system: SR leukemia
ACHN renal = test system: ACHN renal
SK-MEL-2 melanoma = test system: SK-MEL-2 melanoma
OVCAR-8 ovarian = test system: OVCAR-8 ovarian
MOLT-4 leukemia = test system: MOLT-4 leukemia
TK-10 renal = test system: TK-10 renal
HOP-62 NSCLC = test system: HOP-62 NSCLC
BT-549 breast = test system: BT-549 breast
SK-MEL-28 melanoma = test system: SK-MEL-28 melanoma
OVCAR-4 ovarian = test system: OVCAR-4 ovarian
HCT-15 colon = test system: HCT-15 colon
RXF 393 renal = test system: RXF 393 renal
UACC-257 melanoma = test system: UACC-257 melanoma
EKVX NSCLC = test system: EKVX NSCLC
RPMI-8226 leukemia = test system: RPMI-8226 leukemia
NCI-H522 lung = test system: NCI-H522 lung
OVCAR-3 ovarian = test system: OVCAR-3 ovarian
SW-620 colon = test system: SW-620 colon
KM12 colon = test system: KM12 colon
SF-268 CNS = test system: SF-268 CNS
U251 glioblastoma = test system: U251 glioblastoma
MDA-MB-468 breast = test system: MDA-MB-468 breast
MALME-3M melanoma = test system: MALME-3M melanoma
SK-OV-3 ovarian = test system: SK-OV-3 ovarian
M14 melanoma = test system: M14 melanoma
HL-60(TB) leukemia = test system: HL-60(TB) leukemia
A549 NSCLC = test system: A549 NSCLC
CAKI-1 renal = test system: CAKI-1 renal
SF-539 CNS = test system: SF-539 CNS
IGROV1 ovarian = test system: IGROV1 ovarian
HT29 colon = test system: HT29 colon
NCI/ADR-RES ovarian = test system: NCI/ADR-RES ovarian
SNB-75 CNS = test system: SNB-75 CNS
DU-145 prostate = test system: DU-145 prostate
CCRF-CEM leukemia = test system: CCRF-CEM leukemia
NCI-H226 lung = test system: NCI-H226 lung
K-562 leukemia = test system: K-562 leukemia
HCT-116 colon = test system: HCT-116 colon
HCC-2998 colon = test system: HCC-2998 colon
NCI-H460 NSCLC = test system: NCI-H460 NSCLC
SF-295 CNS = test system: SF-295 CNS
NCI-H23 lung = test system: NCI-H23 lung
786-0 renal = test system: 786-0 renal
UACC-62 melanoma = test system: UACC-62 melanoma
MCF7 breast = test system: MCF7 breast
MDA-MB-231 breast = test system: MDA-MB-231 breast
T-47D breast = test system: T-47D breast
LOX IMVI melanoma = test system: LOX IMVI melanoma

O=C(NCC(=O)N1CC[C@H](NC2CCC(O)(c3ccc(-c4ncccn4)cn3)CC2)C1)c1cccc(C(F)(F)F)c1 (stereo partly drawn)
59.3 µM: TGI (MDA-MB-468 breast)
41.1 µM: TGI (UACC-257 melanoma)
> 73.5 µM: TGI (M14 melanoma)
> 52.1 µM: TGI (SK-MEL-5 melanoma)
63.3 µM: TGI (RXF 393 renal)
> 70.2 µM: TGI (HL-60(TB) leukemia)
63 µM: TGI (MOLT-4 leukemia)
> 82.3 µM: TGI (HCC-2998 colon)
> 90.9 µM: TGI (MALME-3M melanoma)
74.2 µM: TGI (RPMI-8226 leukemia)
inactive: GI50 (MDA-MB-435 melanoma) > 100 µM | GI50 (HOP-92 NSCLC) > 58.5 µM | GI50 (SN12C renal) > 100 µM | GI50 (UO-31 renal) 81.2 µM | GI50 (SK-MEL-5 melanoma) 29.7 µM | GI50 (COLO 205 colon) > 87 µM | GI50 (A498 renal) 55.1 µM | GI50 (SNB-19 CNS) 97.5 µM | GI50 (NCI-H322M lung) > 92.4 µM | GI50 (PC-3 prostate) 61.7 µM | GI50 (OVCAR-5 ovarian) > 100 µM | GI50 (SR leukemia) 17.4 µM | GI50 (ACHN renal) > 100 µM | GI50 (SK-MEL-2 melanoma) > 64.4 µM | GI50 (OVCAR-8 ovarian) 96.8 µM | GI50 (MOLT-4 leukemia) 20.9 µM | GI50 (TK-10 renal) > 90 µM | GI50 (HOP-62 NSCLC) > 64.7 µM | GI50 (BT-549 breast) 30 µM | GI50 (SK-MEL-28 melanoma) > 60 µM | GI50 (OVCAR-4 ovarian) > 60.6 µM | GI50 (HCT-15 colon) > 66.7 µM | GI50 (RXF 393 renal) 23.6 µM | GI50 (UACC-257 melanoma) 19.2 µM | GI50 (EKVX NSCLC) 55.9 µM | GI50 (RPMI-8226 leukemia) 20.8 µM | GI50 (NCI-H522 lung) 65.6 µM | GI50 (OVCAR-3 ovarian) > 81.8 µM | GI50 (SW-620 colon) > 100 µM | GI50 (KM12 colon) > 100 µM | GI50 (SF-268 CNS) > 81.4 µM | GI50 (U251 glioblastoma) 52.5 µM | GI50 (MDA-MB-468 breast) 17.1 µM | GI50 (MALME-3M melanoma) > 56.4 µM | GI50 (SK-OV-3 ovarian) > 85.7 µM | GI50 (M14 melanoma) > 49.1 µM | GI50 (HL-60(TB) leukemia) 30.9 µM | GI50 (A549 NSCLC) > 100 µM | GI50 (CAKI-1 renal) 48.1 µM | GI50 (SF-539 CNS) > 67.3 µM | GI50 (IGROV1 ovarian) > 96 µM | GI50 (HT29 colon) > 57.4 µM | GI50 (NCI/ADR-RES ovarian) > 100 µM | GI50 (SNB-75 CNS) > 100 µM | GI50 (DU-145 prostate) > 100 µM | GI50 (CCRF-CEM leukemia) 29.6 µM | GI50 (NCI-H226 lung) > 58 µM | GI50 (K-562 leukemia) 15.4 µM | GI50 (HCT-116 colon) 32.1 µM | GI50 (HCC-2998 colon) 35.7 µM | GI50 (NCI-H460 NSCLC) 38.4 µM | GI50 (SF-295 CNS) > 96.1 µM | GI50 (NCI-H23 lung) 33.5 µM | GI50 ([…]-0 renal) 69.3 µM | GI50 (UACC-62 melanoma) > 47.5 µM | GI50 (MCF7 breast) > 54.6 µM | GI50 (MDA-MB-231 breast) 77.6 µM | GI50 (T-47D breast) 12.1 µM | GI50 (LOX IMVI melanoma) 53.6 µM
> 88.2 µM: TGI (NCI-H23 lung)
> 69.4 µM: TGI (T-47D breast)
31.5 µM: TGI (SR leukemia) | TGI (K-562 leukemia)
> 70.8 µM: TGI (UACC-62 melanoma)
> 100 µM: TGI (MDA-MB-435 melanoma) | TGI (HOP-92 NSCLC) | TGI (SN12C renal) | TGI (UO-31 renal) | TGI (COLO 205 colon) | TGI (A498 renal) | TGI (SNB-19 CNS) | TGI (NCI-H322M lung) | TGI (PC-3 prostate) | TGI (OVCAR-5 ovarian) | TGI (ACHN renal) | TGI (SK-MEL-2 melanoma) | TGI (OVCAR-8 ovarian) | TGI (TK-10 renal) | TGI (HOP-62 NSCLC) | TGI (BT-549 breast) | TGI (SK-MEL-28 melanoma) | TGI (OVCAR-4 ovarian) | TGI (HCT-15 colon) | TGI (EKVX NSCLC) | TGI (NCI-H522 lung) | TGI (OVCAR-3 ovarian) | TGI (SW-620 colon) | TGI (KM12 colon) | TGI (SF-268 CNS) | TGI (U251 glioblastoma) | TGI (SK-OV-3 ovarian) | TGI (A549 NSCLC) | TGI (CAKI-1 renal) | TGI (SF-539 CNS) | TGI (IGROV1 ovarian) | TGI (HT29 colon) | TGI (NCI/ADR-RES ovarian) | TGI (SNB-75 CNS) | TGI (DU-145 prostate) | TGI (CCRF-CEM leukemia) | TGI (NCI-H226 lung) | TGI (HCT-116 colon) | TGI (NCI-H460 NSCLC) | TGI (SF-295 CNS) | TGI (786-0 renal) | TGI (MCF7 breast) | TGI (MDA-MB-231 breast) | TGI (LOX IMVI melanoma)
